Results as given in ChEMBL document CHEMBL5376005, “Gut Metabolite Indoxyl Sulfate Has Selective Deleterious and Anticancer Effect on Colon Cancer Cells” (J Med Chem, 2023).
Structures can show the parent of a compound that is named as a salt. The source made the active and inactive calls. The calls are words filed in the database; no cut-off is given here.

Experiments:
HCT-116 [1] = assay: Cytotoxicity against human HCT-116 cells assessed as cell viability at 10 mM measured after 24 hrs by MTT assay (reference value: 100%); assay type: functional; settings: HCT-116, 24 h, read-out: Activity
HCT-116 [2] = assay: Cytotoxicity against human HCT-116 cells assessed as cell viability at 10 mM measured after 48 hrs by MTT assay (reference value: 100%); assay type: functional; settings: HCT-116, 48 h, read-out: Activity
HCT-116 [3] = assay: Cytotoxicity against human HCT-116 cells assessed as cell viability at 10 mM measured after 72 hrs by MTT assay (reference value: 100%); assay type: functional; settings: HCT-116, 72 h, read-out: Activity
HT-29 [4] = assay: Cytotoxicity against human HT-29 cells assessed as cell viability at 10 mM measured after 24 hrs by MTT assay (reference value: 100%); assay type: functional; settings: HT-29, 24 h, read-out: Activity
HT-29 [5] = assay: Cytotoxicity against human HT-29 cells assessed as cell viability at 10 mM measured after 48 hrs by MTT assay (reference value: 100%); assay type: functional; settings: HT-29, 48 h, read-out: Activity
HT-29 [6] = assay: Cytotoxicity against human HT-29 cells assessed as cell viability at 10 mM measured after 72 hrs by MTT assay (reference value: 100%); assay type: functional; settings: HT-29, 72 h, read-out: Activity
HCT-116 [7] = assay: Cytotoxicity against human HCT-116 cells assessed as reduction in cell viability measured after 24 to 72 hrs by MTT assay; assay type: functional, cell-based; settings: dose 0.01-10 mM, time 24-72 hrs
HCT-116 [8] = assay: Cytotoxicity against human HCT-116 cells assessed as reduction in cell viability at 0.01 to 10 mM by MTT assay; assay type: functional, cell-based; settings: dose 0.01-10 mM, time 24-72 hrs, TDE = time-dependent effect
HT-29 [9] = assay: Cytotoxicity against human HT-29 cells assessed as reduction in cell viability measured after 24 to 72 hrs by MTT assay; assay type: functional, cell-based; settings: dose 0.01-10 mM, time 24-72 hrs
HT-29 [10] = assay: Cytotoxicity against human HT-29 cells assessed as reduction in cell viability at 0.01 to 10 mM by MTT assay; assay type: functional, cell-based; settings: dose 0.01-10 mM, time 24-72 hrs, TDE = time-dependent effect
HCT-116 [11] = assay: Cytotoxicity against human HCT-116 cells assessed as cell viability at 10 mM measured after 72 hrs by CellTiter-Glo luminescent cell viability assay (reference value: 100%); assay type: functional; settings: HCT-116, 72 h, read-out: Activity
HT-29 [12] = assay: Cytotoxicity against human HT-29 cells assessed as cell viability at 10 mM measured after 72 hrs by CellTiter-Glo luminescent cell viability assay (reference value: 100%); assay type: functional; settings: HT-29, 72 h, read-out: Activity
HCT-116 [13] = assay: Cytotoxicity against human HCT-116 cells assessed as reduction in cell viability measured after 48 to 72 hrs by CellTiter-Glo luminescent cell viability assay; assay type: functional, cell-based; settings: dose 0.01-10 mM, time 48-72 hrs
HT-29 [14] = assay: Cytotoxicity against human HT-29 cells assessed as reduction in cell viability measured after 48 to 72 hrs by CellTiter-Glo luminescent cell viability assay; assay type: functional, cell-based; settings: dose 0.01-10 mM, time 48-72 hrs
HCT-116 [15] = assay: Cytotoxicity against human HCT-116 cells assessed as reduction in cell viability at 0.01 to 10 mM by CellTiter-Glo luminescent cell viability assay; assay type: functional, cell-based; settings: dose 0.01-10 mM, time 48-72 hrs, TDE = time-dependent effect
HT-29 [16] = assay: Cytotoxicity against human HT-29 cells assessed as reduction in cell viability at 0.01 to 10 mM by CellTiter-Glo luminescent cell viability assay; assay type: functional, cell-based; settings: dose 0.01-10 mM, time 48-72 hrs, TDE = time-dependent effect
Cell membrane [17] = assay: Induction of membrane integrity loss in human HCT-116 cells assessed as LDH release in supernatant at 5 mM incubated for 48 hrs by absorbance based assay relative to control; assay type: subcellular
Cell membrane [18] = assay: Induction of membrane integrity loss in human HCT-116 cells assessed as LDH release in supernatant at 10 mM incubated for 48 hrs by absorbance based assay relative to control
Cell membrane [19] = assay: Induction of membrane integrity loss in human HT-29 cells assessed as LDH release in supernatant at 5 mM incubated for 48 hrs by absorbance based assay relative to control; assay type: subcellular
Cell membrane [20] = assay: Induction of membrane integrity loss in human HT-29 cells assessed as LDH release in supernatant at 10 mM incubated for 48 hrs by absorbance based assay relative to control; assay type: subcellular
Cell membrane [21] = assay: Induction of membrane integrity loss in human HCT-116 cells assessed as increase in LDH release in supernatant incubated for 48 hrs by absorbance based assay; assay type: subcellular; settings: dose 1.25-10 mM
Cell membrane [22] = assay: Induction of membrane integrity loss in human HT-29 cells assessed as increase in LDH release in supernatant incubated for 48 hrs by absorbance based assay; assay type: subcellular; settings: dose 1.25-10 mM
HCT-116 [23] = assay: Induction of apoptosis in human HCT-116 cells assessed as increase in apoptotic cells at 5 mM incubated for 48 hrs by annexin V-FITC/PI staining based flow cytometry analysis (reference value: 3%); assay type: functional
HCT-116 [24] = assay: Induction of apoptosis in human HCT-116 cells assessed as increase in apoptotic cells at 10 mM incubated for 48 hrs by annexin V-FITC/PI staining based flow cytometry analysis (reference value: 3%); assay type: functional
HT-29 [25] = assay: Induction of apoptosis in human HT-29 cells assessed as increase in apoptotic cells at 5 mM incubated for 48 hrs by annexin V-FITC/PI staining based flow cytometry analysis (reference value: 3%); assay type: functional
HT-29 [26] = assay: Induction of apoptosis in human HT-29 cells assessed as increase in apoptotic cells at 10 mM incubated for 48 hrs by annexin V-FITC/PI staining based flow cytometry analysis (reference value: 3%); assay type: functional
HCT-116 [27] = assay: Induction of morphological changes in human HCT-116 cells assessed as appearance of rounded morphology at 1.25 to 10 mM incubated for 24 to 72 hrs by bright field microscopy analysis; assay type: functional, cell-based; settings: dose 1.25-10 mM, time 24-72 hrs
HT-29 [28] = assay: Induction of morphological changes in human HT-29 cells assessed as appearance of rounded morphology at 1.25 to 10 mM incubated for 24 to 72 hrs by bright field microscopy analysis; assay type: functional, cell-based; settings: dose 1.25-10 mM, time 24-72 hrs
HCT-116 [29] = assay: Induction of morphological changes in human HCT-116 cells assessed as reduction in cell number at 1.25 to 10 mM incubated for 24 to 72 hrs by bright field microscopy analysis; assay type: functional, cell-based; settings: dose 1.25-10 mM, time 24-72 hrs
HT-29 [30] = assay: Induction of morphological changes in human HT-29 cells assessed as reduction in cell number at 1.25 to 10 mM incubated for 24 to 72 hrs by bright field microscopy analysis; assay type: functional, cell-based; settings: dose 1.25-10 mM, time 24-72 hrs
HCT-116 [31] = assay: Induction of morphological changes in human HCT-116 cells assessed as detachment from substrate at 1.25 to 10 mM incubated for 24 to 72 hrs by bright field microscopy analysis; assay type: functional, cell-based; settings: dose 1.25-10 mM, time 24-72 hrs
HT-29 [32] = assay: Induction of morphological changes in human HT-29 cells assessed as detachment from substrate at 1.25 to 10 mM incubated for 24 to 72 hrs by bright field microscopy analysis; assay type: functional, cell-based; settings: dose 1.25-10 mM, time 24-72 hrs
HCT-116 [33] = assay: Induction of morphological changes in human HCT-116 cells assessed as formation of intracellular vesicles at 1.25 to 10 mM incubated for 24 to 72 hrs by bright field microscopy analysis; assay type: functional, cell-based; settings: dose 1.25-10 mM, time 24-72 hrs

O=S(=O)(O)Oc1c[nH]c2ccccc12 [INDOXYL SULFATE]
viability at 10000 µM (HCT-116 [1]): 30%
viability at 10000 µM (HCT-116 [2]): 7%
viability at 10000 µM (HCT-116 [3]): 4%
viability at 10000 µM (HT-29 [4]): 41%
viability at 10000 µM (HT-29 [5]): 30%
viability at 10000 µM (HT-29 [6]): 17%
Activity (HCT-116 [7]): Dose-Dependent Effect
Activity (HCT-116 [8]): Tde
Activity (HT-29 [9]): Dose-Dependent Effect
Activity (HT-29 [10]): Tde
viability at 10000 µM (HCT-116 [11]): 3%
viability at 10000 µM (HT-29 [12]): 19%
Activity (HCT-116 [13]): Dose-Dependent Effect
Activity (HT-29 [14]): Dose-Dependent Effect
Activity (HCT-116 [15]): Tde
Activity (HT-29 [16]): Tde
Activity (Cell membrane [17]): 80%
Activity (Cell membrane [18]): 86%
Activity (Cell membrane [19]): 82%
Activity (Cell membrane [20]): 85%
Activity (Cell membrane [21]): Dose-Dependent Effect
Activity (Cell membrane [22]): Dose-Dependent Effect
Activity (HCT-116 [23]): 9%
Activity (HCT-116 [24]): 13%
Activity (HT-29 [25]): 8%
Activity (HT-29 [26]): 12%
Activity (HCT-116 [27]): Active
Activity (HT-29 [28]): Active
Activity (HCT-116 [29]): Active
Activity (HT-29 [30]): Active
Activity (HCT-116 [31]): Active
Activity (HT-29 [32]): Active
Activity (HCT-116 [33]): Active
